Laboratory results from PubChem BioAssay (NCI).
“And” between values parts separate entries of the source, which are not always exact repeats. Equal entries are not always repeated.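 Briefly, cells in 96-well plates were exposed to five compound concentrations for 48 h, and endpoints were estimated by linear interpolation. GI50 is the concentration that inhibits growth by half. The concentration for full growth arrest is given as TGI.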

What was measured:
Experiment in all cases: inhibition of tumour cell growth, NCI panel, 48 h
786-0 renal = system: 786-0 renal
A549 NSCLC = system: A549 NSCLC
CAKI-1 renal = system: CAKI-1 renal
COLO 205 colon = system: COLO 205 colon
HS 578T breast = system: HS 578T breast
NCI-H460 lung = system: NCI-H460 lung
NCI-H522 lung = system: NCI-H522 lung
OVCAR-3 ovarian = system: OVCAR-3 ovarian
UO-31 renal = system: UO-31 renal
LXFL 529 NSCLC = system: LXFL 529 NSCLC
SNB-78 CNS = system: SNB-78 CNS

SMILES | TGI (786-0 renal) | TGI (A549 NSCLC) | TGI (CAKI-1 renal) | TGI (COLO 205 colon) | TGI (HS 578T breast) | TGI (NCI-H460 lung) | TGI (NCI-H522 lung) | TGI (OVCAR-3 ovarian) | TGI (UO-31 renal) | TGI (LXFL 529 NSCLC) [µM] | TGI (SNB-78 CNS) [µM] | GI50 (A549 NSCLC) | GI50 (COLO 205 colon) | GI50 (NCI-H460 lung) | GI50 (OVCAR-3 ovarian) | GI50 (UO-31 renal)
O=C(/C=C(\O)c1ccccc1)/C(=C/C(=O)c1ccccc1)NN=C(c1ccccc1)c1ccccc1 | > 100 µM | > 100 µM | > 100 µM | > 100 µM | > 100 µM | 72.8 µM | 63 µM | 67.1 µM | > 100 µM |  |  |  |  |  |  | 
CC1=NN(C(=O)c2ccc(Cl)cc2)C(=O)/C1=C/c1ccc(Cl)cc1 | > 100 µM | > 100 µM | > 100 µM | > 100 µM |  | > 100 µM | > 100 µM | > 100 µM | > 100 µM | > 100 | > 100 |  |  |  |  | 
COc1nc(OC)nc(-c2cccc(F)c2)n1 | 63 µM | 52.6 µM | 11.4 µM | 37.8 µM | 93.5 µM | 32.9 µM | 42.4 µM | 27.7 µM | 31.8 µM |  |  |  |  |  |  | 
COc1cc(C(c2cccc3ccccc23)N2C(=O)CCC2C(=O)NCc2ccccc2)cc(OC)c1OC (stereo not given) | > 100 µM | > 100 µM | > 100 µM | > 100 µM | > 100 µM | > 100 µM | > 100 µM | > 100 µM | > 100 µM |  |  |  |  |  |  | 
C=C(Br)CNCC(=C)Br | > 100 µM | > 100 µM | > 100 µM | > 100 µM | > 100 µM | > 100 µM | > 100 µM | > 100 µM | > 100 µM |  |  |  |  |  |  | 
Cc1ccnc(NC(=S)Nc2cccc(Cl)c2)c1 | > 100 µM | > 100 µM | > 100 µM | > 100 µM | > 100 µM | > 100 µM | 9.85 µM | > 100 µM | > 100 µM |  |  |  |  |  |  | 
Cc1occ2c1C(=O)CC1C2[C@@H](O)CC2C(C)(C)CCC[C@]12C (stereo not given in full) | > 100 µM | > 100 µM |  | > 100 µM |  |  | > 100 µM |  | > 100 µM | > 100 | > 100 |  |  |  |  | 
Cc1cc(S(=O)(=O)Nc2nc3ccccc3n2-c2ccccc2)c(S)cc1Cl | > 100 µM | > 100 µM | > 100 µM | > 100 µM | > 100 µM | > 100 µM | > 100 µM | > 100 µM | > 100 µM |  |  |  |  |  |  | 
Cc1ccc(OCC2OC(n3cnc4c(Cl)ncnc43)CC2Oc2ccc(C)cc2)cc1 (stereo not given) | > 73.4 µM and 51.7 µM | 15.9 µM and 37 µM | 4.18 µM and 5.78 µM | 19.4 µM and 74.4 µM | > 59.2 µM and 27.5 µM | 18.3 µM and > 48.5 µM | 6.66 µM and 3.82 µM | 9.72 µM and 27.7 µM | 15.8 µM and 3.29 µM |  |  | 7.37 µM and 18.9 µM | 6.45 µM and 20.8 µM | 3.71 µM and 13.4 µM | 3.16 µM and 8.9 µM | 8.08 µM and 1.84 µM
COc1cc(OC)c2c(O)c(S(=O)(=O)c3ccc(C)cc3)c(=O)oc2c1 | > 100 µM | > 100 µM | > 100 µM | > 100 µM | > 100 µM | > 100 µM | > 100 µM | > 100 µM | > 100 µM |  |  |  |  |  |  | 
[N-]=[N+]=NC[C@H]1OCO[C@H](CN=[N+]=[N-])[C@H]2OCCOCCOc3ccccc3OCCOCCO[C@@H]21 | > 100 µM | > 100 µM | > 100 µM | > 100 µM | > 100 µM | > 100 µM | > 100 µM | > 100 µM | > 100 µM |  |  |  |  |  |  | 
CCn1c2ccc(O)c(C(=O)OC)c2c2cc3ccccc3c(O)c21 | 30.7 µM | 83 µM | 33.6 µM | 29.5 µM | 45.2 µM | 54.9 µM | 41.2 µM | 47.3 µM | > 100 µM |  |  |  |  |  |  | 
N#Cc1c(Nc2nc3ccccc3s2)c2ccccc2n2c1nc1ccccc12 | > 100 µM | > 100 µM | > 100 µM | > 100 µM | > 100 µM | > 100 µM | > 100 µM | > 100 µM | > 100 µM |  |  |  |  |  |  | 
Oc1nc(N/N=C/c2ccccc2)[nH]c1/C=C1\C=Nc2ccccc21 | > 100 µM | > 100 µM | > 100 µM | > 100 µM | > 100 µM | > 100 µM | > 100 µM | > 100 µM | > 100 µM |  |  |  |  |  |  | 
COc1ccc(/C(=N/Nc2nc3ccccc3[nH]2)C(=O)O)cc1 | > 100 µM | > 100 µM | > 100 µM | > 100 µM | > 100 µM | > 100 µM | > 100 µM | > 100 µM | > 100 µM |  |  |  |  |  |  | 
CN(C)Cc1cc(C(=O)/C=C/c2cccc(Cl)c2)cc(CN(C)C)c1O | 15.7 µM | 28.8 µM | 4.3 µM | 3.79 µM | 32.7 µM | 11.4 µM | 33 µM | 9.21 µM | 19.5 µM |  |  |  |  |  |  | 
CC(NNC(=O)c1ccncc1)c1ccc(Cl)c(Cl)c1 (stereo not given) | > 100 µM | > 100 µM | > 100 µM | > 100 µM | > 100 µM | > 100 µM | > 100 µM | > 100 µM | > 100 µM |  |  |  |  |  |  | 
CNC(=S)N/N=C(\C)c1nc2ncccc2[nH]1 | > 100 µM | > 100 µM | 99.1 µM | > 100 µM | > 84.3 µM | > 100 µM | > 73.3 µM | 75.5 µM | 40.6 µM |  |  |  |  |  |  | 
O/N=C1/C2CC3CC1(c1ccccc1)CC(/C3=N/O)/C2=N\O (stereo not given) | > 100 µM | > 100 µM | > 100 µM | > 100 µM | > 100 µM | > 100 µM | > 100 µM | > 100 µM | > 100 µM |  |  |  |  |  |  | 
